Test results taken from patent publication US20070172470A1, “Phosphatase regulation of nucleic acid transcription” (The Regents of the University of California, priority 2003, published 2007).
Like-named read-outs stand apart in the source and are kept apart here.

Biological target: SCP1 (Homo sapiens, UniProt Q9GZU7)
Assay: PNθP phosphatase assay in the presence of phosphatase inhibitors
Type: biochemical

Sequence of SCP1 (Q9GZU7 other isoform, or with tags, fused parts or gaps): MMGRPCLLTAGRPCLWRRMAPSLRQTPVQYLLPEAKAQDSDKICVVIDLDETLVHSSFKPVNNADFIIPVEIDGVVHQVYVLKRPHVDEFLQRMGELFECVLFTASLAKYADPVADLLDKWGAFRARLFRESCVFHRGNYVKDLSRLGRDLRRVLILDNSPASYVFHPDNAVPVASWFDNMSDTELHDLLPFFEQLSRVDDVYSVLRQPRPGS

| Molecule | SCP1 phosphatase activity in the presence of phosphatase inhibitor | SCP1 phosphatase activity in the presence of phosphatase inhibitor (GST-SCP1 214 (40 pmol), 20 mM PNθP, 1-10 μM inhibitor) |
| --- | --- | --- |
| microcystin | resistant |  |
| C=C1[C@@H](O)[C@@H]2O[C@]3(CC[C@H](/C=C/[C@@H](C)[C@@H]4CC(C)=C[C@@]5(O[C@H](C[C@@](C)(O)C(=O)O)CC[C@H]5O)O4)O3)CC[C@H]2O[C@@H]1[C@@H](O)C[C@H](C)[C@H]1O[C@@]2(CCCCO2)CC[C@H]1C [okadaic acid] |  | resistant |
